Experimental data reported in patent EP0492136A2, “Retroviral protease inhibitors derived from 3-chloro-2-chloromethyl-1-propene” (AMERICAN CYANAMID COMPANY, priority 1990, dated 1992).

What was measured:
[1] = molecular target: T1, HIV-1 protease (Human immunodeficiency virus type 1 group M subtype B, UniProt P04585); assay: in vitro inhibition of HIV-1 protease (octapeptide substrate cleavage, HPLC); type: biochemical; conditions: substrate H-Val-Ser-Gln-Asn-Tyr-Pro-Ile-Val-OH
T1 construct: HIV-1 protease is available for purchase from Medigenics; purchased Medigenics, 701 Mercy Rd., Suite 420, Omaha, Nebraska 68106
Experimental: HIV-1 protease is available for purchase from Medigenics, 701 Mercy Rd., Suite 420, Omaha, Nebraska 68106. Protease activity is assayed using the octapeptide H-Val-Ser-Gln-Asn-Tyr-Pro-Ile-Val-OH as the substrate. Cleavage of the substrate is quantitated by measuring the production of H-Val-Ser-Gln-Asn-Tyr-OH by HPLC analysis by the method described by Tomaselli et al., (cited previously).

[2] = test system: HIV-1 strain IIIB; assay: inhibition of growth of HIV-1 in MT-2 cells, CPE (cell death) measured with MTT dye; type: cell-based; conditions: T lymphoid MT-2 cell lines, after 5 days; for inhibition at 2.5 µg/mL / inhibition at 0.625 µg/mL: Human immunodeficiency virus 1, IIIB, MT2, 120 h, read-out: % Inhibition at Concentration
Excerpt: In Table 3 data is shown for the ability of these compounds to inhibit growth of HIV-1 strain IIIB in T lymphoid MT-2 cell lines. The endpoint of these experiments after 5 days is CPE (cell death) measured with the metabolic MTT dye.

[3] = test system: HTLV-IIIB strain of HIV-1; assay: anti-HIV-1 activity in H9 based tissue culture, supernatant p24 antigen; type: cell-based; conditions: for inhibition at 0.2 µg/mL / inhibition at 2 µg/mL / inhibition at 20 µg/mL: Human immunodeficiency virus 1, IIIB, read-out: % Inhibition p24; for % Inhibition p24: H9 culture, relative to infected control cultures
Experimental: Compounds are also tested for their ability to act as anti-HIV-1 compounds in tissue culture. The tests are performed in H9 based tissue culture challenged with HTLV-IIIB strain of HIV-1. The assay consists of evaluating the percent inhibition of supernatent p24 antigen concentrations relative to infected control cultures, as well as percent viable cells at 20 µg/ml in uninfected cells.

CC(C)C(NC(=O)C(Cc1ccccc1)CC(O)CC(Cc1ccccc1)C(=O)NC(C(=O)NCc1nc2ccccc2[nH]1)C(C)C)C(=O)NCc1nc2ccccc2[nH]1 (stereo not drawn) [Example 328, [1S-[1R*[2S*,6S*,7R*],2R*]]-4-Hydroxy-2,6-bis(phenylmethyl)-N,N'-bis[1-[[(1-H-benzimidazoyl-2ylmethyl)amino]carbonyl]-2-methylpropyl]-heptanediamide]
IC50 [1]: 0.005 µM | inhibition at 2.5 µg/mL ([2]; 2.5 µg/ml): 72.8% | inhibition at 0.625 µg/mL ([2]; .625 µg/ml): 17.1%

COC(=O)[C@H](Cc1ccccc1)NC(=O)[C@@H](NC(=O)[C@H](Cc1ccccc1)CC(O)C[C@@H](Cc1ccccc1)C(=O)N[C@H](C(=O)N[C@@H](Cc1ccccc1)C(=O)OC)C(C)C)C(C)C [Example 110, [R-(R*,R*)]-N^ω,N^ω'-(2,6-Bis(phenylmethyl)-4-hydroxy-1,7-dioxo-1,7-heptanediyl)bis[N-L-valyl-L-phenylalanine] dimethyl ester]
IC50 [1]: 0.01 µM | inhibition at 2.5 µg/mL ([2]; 2.5 µg/ml): 58.7% | inhibition at 0.625 µg/mL ([2]; .625 µg/ml): 16.6%

O=C(Cc1ccccn1)NC1CCCCC1NC(=O)C(Cc1ccccc1)CC(O)CC(Cc1ccccc1)C(=O)NC1CCCCC1NC(=O)Cc1ccccn1 (stereo not drawn) [Example 327, [1S-[1α[2R*,6R*,7(1R*,2R*)],2β]]-4-Hydroxy-2,6-bis(phenylmethyl)-N,N'-bis[[((2-pyridyl)acetyl)amino]cyclohexyl]-heptanediamde]
IC50 [1]: 0.1 µM | % Inhibition at Concentration ([2]; 2.5 µg/ml): 3.2% | % Inhibition at Concentration ([2]; .625 µg/ml): 3.2%

O=C(NC1CCCCC1Nc1cccnc1)C(Cc1ccccc1)CC(O)CC(Cc1ccccc1)C(=O)NC1CCCCC1Nc1cccnc1 (stereo not drawn) [Example 324, [1S-[1α[2R*,6R*,7(1R*,2R*)],2β]]-4-Hydroxy-2,6-bis(phenylmethyl)-N,N'-bis[[(3-pyridyl)amino]cyclohexyl]-heptanediamde]
IC50 [1]: 0.1 µM

O=C(NC1CCCCC1Nc1ccncc1)C(Cc1ccccc1)CC(O)CC(Cc1ccccc1)C(=O)NC1CCCCC1Nc1ccncc1 (stereo not drawn) [Example 323, [1S-[1α[2R*,6R*,7(1R*,2R*)],2β]]-4-Hydroxy-2,6-bis(phenylmethyl)-N,N'-bis[[(4-pyridyl)amino]cyclohexyl]-heptanediamde]
IC50 [1]: 0.1 µM | % Inhibition at Concentration ([2]; 2.5 µg/ml): 3.1% | % Inhibition at Concentration ([2]; .625 µg/ml): 0.2%

CC(C)(C)NC(=O)CN(Cc1ccccc1)CC(O)(CO)CN(CC(=O)NC(C)(C)C)Cc1ccccc1 [Example 52]
IC50 [1]: 5 µM | inhibition at 0.2 µg/mL [3]: 0% | inhibition at 2 µg/mL [3]: 0% | inhibition at 20 µg/mL [3]: 90%

CC(C)(C)NC(=O)CN(Cc1ccccc1)CC(O)CN(CC(=O)NC(C)(C)C)Cc1ccccc1 [Example 53]
IC50 [1]: 100 µM

CC(C)(C)NC(=O)C1CCCCN1CC(O)(CO)CN1CCCCC1C(=O)NC(C)(C)C (single isomer, unassigned) [58 (Isomer A)]
IC50 [1]: > 1000 µM

O=C(NCC1CCCCC1)C(Cc1ccccc1)CC(O)CC(Cc1ccccc1)C(=O)NCC1CCCCC1 (stereo not drawn) [Example 42]
IC50 [1]: 50 µM

CC(C)(C)OC(=O)NC1CCCCC1NC(=O)C(Cc1ccccc1)CC(O)CC(Cc1ccccc1)C(=O)NC1CCCCC1NC(=O)OC(C)(C)C (stereo not drawn) [Example 46]
IC50 [1]: 0.8 µM

CCOC(=O)CN(Cc1ccccc1)CC(O)(CO)CN(CC(=O)NC(C)(C)C)Cc1ccccc1 (stereo not drawn) [Example 54]
IC50 [1]: 100 µM

CC(C)(C)NC(=O)C(Cc1ccccc1)CC(O)CC(Cc1ccccc1)C(=O)NC(C)(C)C (stereo not drawn) [Example 36]
IC50 [1]: 0.1 µM

CC(=O)NC1CCCCC1NC(=O)C(Cc1ccccc1)CC(O)CC(Cc1ccccc1)C(=O)NC1CCCCC1NC(C)=O (stereo not drawn) [Example 326, [1S-[1α[2R*,6R*,7(1R*,2R*)],2β]]-4-Hydroxy-2,6-bis(phenylmethyl)-N,N'-bis[[(2-acetyl)amino]cyclohexyl]-heptanediamde]
IC50 [1]: 0.1 µM | % Inhibition p24 ([3]; 2 µg/ml): 0% | % Inhibition p24 ([3]; 20 µg/ml): 3% | % Inhibition p24 ([3]; .2 µg/ml): 0%

CCOC(=O)CN(Cc1ccccc1)CC(O)(CO)CN(CC(=O)OCC)Cc1ccccc1 [Example 55]
IC50 [1]: 100 µM | inhibition at 0.2 µg/mL [3]: 0% | inhibition at 2 µg/mL [3]: 0% | inhibition at 20 µg/mL [3]: 0%

CC(C)CNC(=O)[C@H](Cc1ccccc1)CC(O)C[C@@H](Cc1ccccc1)C(=O)NCC(C)C (relative stereo) [Example 331, [R,(R*,R*)-N,N'-4-hydroxy-N,N'-bis(2-methylpropyl)-2,6-bis(phenylmethyl)heptanediamide]
IC50 [1]: 0.5 µM

O=C(NC1CCCC1)C(Cc1ccccc1)CC(O)CC(Cc1ccccc1)C(=O)NC1CCCC1 (stereo not drawn) [Example 39]
IC50 [1]: 0.01 µM

O=C(NC1CCCCC1Nc1ccccn1)C(Cc1ccccc1)CC(O)CC(Cc1ccccc1)C(=O)NC1CCCCC1Nc1ccccn1 (stereo not drawn) [Example 325, [1S-[1α[2R*,6R*,7(1R*,2R*)],2β]]-4-Hydroxy-2,6-bis(phenylmethyl)-N,N'-bis[[(2-pyridyl)amino]cyclohexyl]-heptanediamde]
IC50 [1]: 0.1 µM | % Inhibition at Concentration ([2]; 2.5 µg/ml): 3.8% | % Inhibition at Concentration ([2]; .625 µg/ml): 0.0%

CCC(C)C(NC(=O)C(Cc1ccccc1)CC(O)CC(Cc1ccccc1)C(=O)NC(C(=O)NCc1nc2ccccc2[nH]1)C(C)CC)C(=O)NCc1nc2ccccc2[nH]1 (stereo not drawn) [Example 329, [1S-[1R*[2S*,6S*,7(1R*,2R*)],2R*]]-4-Hydroxy-2,6-bis(phenylmethyl)-N,N'-bis[1-[[(1-H-benzimidazoyl-2ylmethyl)amino]carbonyl]-2-methylbutyl]heptanediamide]
IC50 [1]: 0.005 µM | inhibition at 2.5 µg/mL ([2]; 2.5 µg/ml): 97.9% | inhibition at 0.625 µg/mL ([2]; .625 µg/ml): 92.5%

CC(C)(C)NC(=O)C1CCCCN1CC(O)(CO)CN1CCCCC1C(=O)NC(C)(C)C (single isomer, unassigned) [58 (Isomer B)]
IC50 [1]: 100 µM

O=C(NC1CCCCC1)[C@H](Cc1ccccc1)CC(O)C[C@@H](Cc1ccccc1)C(=O)NC1CCCCC1 [Example 330, [R-(R*,R*)]-N,N'dicyclohexyl-4-hydroxy-2,6-bis(phenylmethyl) heptanediamide]
IC50 [1]: 0.1 µM | inhibition at 0.2 µg/mL [3]: 0% | inhibition at 2 µg/mL [3]: 0% | inhibition at 20 µg/mL [3]: 0%

CCOC(=O)CN(CC1CCCCC1)CC(O)(CO)CN(CC(=O)OCC)CC1CCCCC1 [Example 60]
IC50 [1]: 50 µM
